Converted amounts (≈) assume the structure as drawn.
Experiment: Solubility of the compound at pH 7.4
Format: physicochemical
Details: buffer

solubility | Compound
11 µg/mL (≈ 28.7 µM) | Cc1c(Cl)cccc1Oc1cccn2c(C34CCC(O)(CC3)CC4)nnc12
1 µg/mL (≈ 2.59 µM) | Cc1c(Cl)cccc1Oc1cccn2c(C34CCC(F)(CC3)CC4)nnc12
1 µg/mL (≈ 2.83 µM) | Cc1c(Cl)cccc1Oc1cccn2c(C34CCC(CC3)C4)nnc12

Source: ChEMBL document CHEMBL1800042, “Generation of 3,8-substituted 1,2,4-triazolopyridines as potent inhibitors of human 11β-hydroxysteroid dehydrogenase type 1 (11β-HSD-1)” (Bioorg Med Chem Lett, 2011)
